From patent US12077503B2, “Substituted cyclic amides and their use as herbicides” (FMC CORPORATION, priority 2015, dated 2024)

Assays:
Assay type in all cases: in vivo
[1] = system: pigweed (Amaranthus retroflexus); assay: Test A preemergence; settings: Amaranthus retroflexus, pre-emergence, 240 h, preemergence, 0 to 100 scale where 0 is no effect and 100 is complete control, read-out: Pigweed plant response rating; for pest or weed control at 125 g/ha: 125 g ai/ha, visual injury rating, approximately 10 d; for pest or weed control at 500 g/ha: 500 g ai/ha
[2] = system: giant foxtail (Setaria faberii); assay: Test A preemergence; settings: Setaria faberi, pre-emergence, 240 h, preemergence, 0 to 100 scale where 0 is no effect and 100 is complete control, read-out: Foxtail, Giant plant response rating; for pest or weed control at 125 g/ha: 125 g ai/ha, visual injury rating, approximately 10 d; for pest or weed control at 500 g/ha: 500 g ai/ha
Summary of the method: (§1)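 Each rating is a visual injury score from 0 to 100 given about 10 d after treatment, judged against untreated controls kept alongside in the greenhouse. In loam soil–sand blend, seeds got a preemergence directed soil spray, while postemergence plants were 2 to 10 cm tall at spraying.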

[3] = system: barnyardgrass (Echinochloa crus-galli); assay: Test A preemergence; settings: Echinochloa crus-galli, pre-emergence, 240 h, preemergence, 0 to 100 scale where 0 is no effect and 100 is complete control, read-out: Barnyardgrass plant response rating; for pest or weed control at 125 g/ha: 125 g ai/ha, visual injury rating, approximately 10 d; for pest or weed control at 500 g/ha: 500 g ai/ha
Summary of the method: as §1

Kochia (Kochia scoparia) = assay: Test A preemergence; settings: Bassia scoparia, pre-emergence, 240 h, preemergence, 0 to 100 scale where 0 is no effect and 100 is complete control, read-out: Kochia plant response rating; for pest or weed control at 125 g/ha: 125 g ai/ha, visual injury rating, approximately 10 d; for pest or weed control at 500 g/ha: 500 g ai/ha
Summary of the method: as §1

[4] = system: ryegrass, Italian (Italian ryegrass, Lolium multiflorum); assay: Test A preemergence; settings: Lolium multiflorum, pre-emergence, 240 h, preemergence, 0 to 100 scale where 0 is no effect and 100 is complete control, read-out: Ryegrass, Italian plant response rating; for pest or weed control at 125 g/ha: 125 g ai/ha, visual injury rating, approximately 10 d; for pest or weed control at 500 g/ha: 500 g ai/ha
Summary of the method: as §1

[5] = system: ragweed (common ragweed, Ambrosia elatior); assay: Test A preemergence; settings: Ambrosia artemisiifolia, pre-emergence, 240 h, preemergence, 0 to 100 scale where 0 is no effect and 100 is complete control, read-out: Ragweed plant response rating; for pest or weed control at 125 g/ha: 125 g ai/ha, visual injury rating, approximately 10 d; for pest or weed control at 500 g/ha: 500 g ai/ha
Summary of the method: as §1

[6] = system: pigweed (Amaranthus retroflexus); assay: Test A postemergence; settings: Amaranthus retroflexus, post-emergence, 240 h, postemergence; for pest or weed control at 125 g/ha: 125 g ai/ha, visual injury vs untreated controls after approx. 10 d, 0 = no effect, 100 = complete control, read-out: Pigweed plant response rating (0 to 100 scale); for pest or weed control at 500 g/ha: 500 g ai/ha, 0 to 100 scale, 0 is no effect, 100 is complete control, read-out: Pigweed plant response rating
Summary of the method: as §1

[7] = system: blackgrass (Alopecurus myosuroides); assay: Test A postemergence; settings: Alopecurus myosuroides, post-emergence, 240 h, postemergence; for pest or weed control at 125 g/ha: 125 g ai/ha, visual injury vs untreated controls after approx. 10 d, 0 = no effect, 100 = complete control, read-out: Blackgrass plant response rating (0 to 100 scale); for pest or weed control at 500 g/ha: 500 g ai/ha, 0 to 100 scale, 0 is no effect, 100 is complete control, read-out: Blackgrass plant response rating
Summary of the method: as §1

[8] = system: giant foxtail (Setaria faberii); assay: Test A postemergence; settings: Setaria faberi, post-emergence, 240 h, postemergence; for pest or weed control at 125 g/ha: 125 g ai/ha, visual injury vs untreated controls after approx. 10 d, 0 = no effect, 100 = complete control, read-out: Foxtail, Giant plant response rating (0 to 100 scale); for pest or weed control at 500 g/ha: 500 g ai/ha, 0 to 100 scale, 0 is no effect, 100 is complete control, read-out: Foxtail, Giant plant response rating
Summary of the method: as §1

[9] = system: barnyardgrass (Echinochloa crus-galli); assay: Test A postemergence; settings: Echinochloa crus-galli, post-emergence, 240 h, postemergence; for pest or weed control at 125 g/ha: 125 g ai/ha, visual injury vs untreated controls after approx. 10 d, 0 = no effect, 100 = complete control, read-out: Barnyardgrass plant response rating (0 to 100 scale); for pest or weed control at 500 g/ha: 500 g ai/ha, 0 to 100 scale, 0 is no effect, 100 is complete control, read-out: Barnyardgrass plant response rating
Summary of the method: as §1

[10] = system: wheat (Triticum aestivum); assay: Test A postemergence; settings: Triticum aestivum, post-emergence, 240 h, postemergence; for plant injury at 125 g/ha: 125 g ai/ha, visual injury vs untreated controls after approx. 10 d, 0 = no effect, 100 = complete control, read-out: Wheat plant response rating (0 to 100 scale)
Summary of the method: as §1

[11] = system: ryegrass, Italian (Italian ryegrass, Lolium multiflorum); assay: Test A postemergence; settings: Lolium multiflorum, post-emergence, 240 h, postemergence; for pest or weed control at 125 g/ha: 125 g ai/ha, visual injury vs untreated controls after approx. 10 d, 0 = no effect, 100 = complete control, read-out: Ryegrass, Italian plant response rating (0 to 100 scale); for pest or weed control at 500 g/ha: 500 g ai/ha, 0 to 100 scale, 0 is no effect, 100 is complete control, read-out: Ryegrass, Italian plant response rating
Summary of the method: as §1

corn (Zea mays) = assay: Test A postemergence; settings: Zea mays, post-emergence, 240 h, postemergence; for plant injury at 125 g/ha: 125 g ai/ha, visual injury vs untreated controls after approx. 10 d, 0 = no effect, 100 = complete control, read-out: Corn plant response rating (0 to 100 scale); for plant injury at 500 g/ha: 500 g ai/ha, 0 to 100 scale, 0 is no effect, 100 is complete control, read-out: Corn plant response rating
Summary of the method: as §1

[12] = system: ragweed (common ragweed, Ambrosia elatior); assay: Test A postemergence; settings: Ambrosia artemisiifolia, post-emergence, 240 h, postemergence; for pest or weed control at 125 g/ha: 125 g ai/ha, visual injury vs untreated controls after approx. 10 d, 0 = no effect, 100 = complete control, read-out: Ragweed plant response rating (0 to 100 scale); for pest or weed control at 500 g/ha: 500 g ai/ha, 0 to 100 scale, 0 is no effect, 100 is complete control, read-out: Ragweed plant response rating
Summary of the method: as §1

[13] = system: Galium (catchweed bedstraw, Galium aparine); assay: Test A postemergence; settings: Galium, post-emergence, 240 h, postemergence; for pest or weed control at 125 g/ha: 125 g ai/ha, visual injury vs untreated controls after approx. 10 d, 0 = no effect, 100 = complete control, read-out: Galium plant response rating (0 to 100 scale); for pest or weed control at 500 g/ha: 500 g ai/ha, 0 to 100 scale, 0 is no effect, 100 is complete control, read-out: Galium plant response rating
Summary of the method: as §1

Row | Structure (SMILES) | pest or weed control at 125 g/ha [1] [%] | pest or weed control at 500 g/ha [1] [%] | pest or weed control at 125 g/ha [2] [%] | pest or weed control at 500 g/ha [2] [%] | pest or weed control at 125 g/ha [3] [%] | pest or weed control at 500 g/ha [3] [%] | pest or weed control at 125 g/ha (Kochia (Kochia scoparia)) [%] | pest or weed control at 500 g/ha (Kochia (Kochia scoparia)) [%] | pest or weed control at 125 g/ha [4] [%] | pest or weed control at 500 g/ha [4] [%] | pest or weed control at 125 g/ha [5] [%] | pest or weed control at 500 g/ha [5] [%] | pest or weed control at 125 g/ha [6] [%] | pest or weed control at 500 g/ha [6] [%] | pest or weed control at 125 g/ha [7] [%] | pest or weed control at 500 g/ha [7] [%] | pest or weed control at 125 g/ha [8] [%] | pest or weed control at 500 g/ha [8] [%] | pest or weed control at 125 g/ha [9] [%] | pest or weed control at 500 g/ha [9] [%] | further results
1 | Cc1ccc([C@H]2CCN(C)C(=O)[C@@H]2C(=O)Nc2cccc(Cl)c2F)cc1 [Compound 1223] | 0 | 0 | 90 | 90 | 90 | 90 | 0 | 20 | 0 | 0 | 0 | 20 | 0 | 0 | 30 | 50 | 90 | 90 | 30 | 50 | plant injury at 125 g/ha [10]: 0%; plant injury at 500 g/ha ([10]; 500 g ai/ha, 0 to 100 scale, 0 is no effect, 100 is complete control, read-out: Wheat plant response rating): 30%; pest or weed control at 125 g/ha [11]: 20%; pest or weed control at 500 g/ha [11]: 60%; plant injury at 125 g/ha (corn (Zea mays)): 0%; plant injury at 500 g/ha (corn (Zea mays)): 0%; pest or weed control at 125 g/ha [12]: 0%; pest or weed control at 500 g/ha [12]: 20%; pest or weed control at 125 g/ha [13]: 20%; pest or weed control at 500 g/ha [13]: 40%
2 | Cc1cccc([C@H]2CN(C)C(=O)[C@@H]2C(=O)Nc2ccc(F)c(F)c2F)c1 [Compound 1231] | 40 | 70 | 90 | 90 | 90 | 90 | 70 | 90 | 40 | 90 | 30 | 60 | 0 | 50 | 0 | 40 | 80 | 90 | 80 | 80 | plant injury at 125 g/ha [10]: 50%; pest or weed control at 125 g/ha [11]: 40%; pest or weed control at 500 g/ha [11]: 50%; plant injury at 125 g/ha (corn (Zea mays)): 70%; plant injury at 500 g/ha (corn (Zea mays)): 80%; pest or weed control at 125 g/ha [12]: 0%; pest or weed control at 500 g/ha [12]: 30%; pest or weed control at 125 g/ha [13]: 50%; pest or weed control at 500 g/ha [13]: 70%
